Measurements published in patent publication US12312599B2, “Methods, compositions, and kits for producing beige adipocytes and treating metabolic disorders” (MaineHealth, priority 2018, dated 2025).

Assays:
Assay type in all cases: cell-based, human
FD-MSCs [1] = assay: BODIPY lipid stain of FD-MSCs during adipogenic differentiation
Description: All assays were performed between 7 and 15 passages. For osteocyte differentiation, mature MSCs were grown in 24 well culture plates to 100% confluency in MesenCult-ACF and induced to differentiate in OsteoLife Complete Osteogenesis Medium (Lifeline Cell Technology) for 21 days prior to staining with Lifeline Alizarin Red Stain to visualize calcium deposition. For chondrocyte differentiation. For beige adipogenic precursor generation, cells were grown in 24 well culture plates to 90% confluence and treated with 5 uM SB413542 (Sigma) and 10 nM human IL-4 (Peprotech) for 2 days. For beige adipogenic induction, adipogenic precursors are differentiated for 3 days with adipogenic medium consisting of T3 (2 nM), insulin (170 nM), rosiglitazone (1 μM), SB413542 (5 uM), IBMX (0.5 mM), dexamethasone (5 μM) and indomethacin (125 μM) in EGM-2 medium (Lonza) supplemented with the BulletKit minus FGF2 (modified from^33). Thereafter, cells are maintained in adipogenic medium without IBMX, dexamethasone and indomethacin. The medium was changed every 3 days and adipocytes were fully differentiated by 9-12 days as determined by lipid accumulation and peak expression of UCP1. Cell Isolation, Expansion and Differentiation of Interscapular Brown Adipose Tissue Preadipocytes • 1. Prior to adipose cell isolation, warm DMEM, FBS and cell wash buffer to room temperature. • 2. In a laminar flow cabinet for cell culture, place 5 g of adipose tissue on a 100×20 mm dish. Suspend tissue in 1 mL of Adipose Tissue Dissociation Kit enzyme digest cocktail and finely mince with a razorblade. • 3. […] Incubate tube at 37° C. on a rotating nutator for 30 minutes. During incubation period, briefly vortex sample for 5 s in 10-minute intervals. • 5. Transfer cells to a 15 mL tube and add 5 mL of DMEM. Filter cell suspension through a 100 μm strainer into a new 15 mL tube and centrifuge at 300 g for 5 minutes to form a pellet. • 6. Remove supernatant and leave behind […] of DMEM. Resuspend cell pellet in 10 mL of DMEM containing 10% FBS and plate in a 100×20 mm dish for expansion. Agitate plate to spread cells evenly on well surface and incubate plate at 37° C. in a 5% CO2 incubator undisturbed. Change 100% of medium every day. • 7. Upon 80% confluence, split and passage cells at a ratio of 1:6. • 8. Prepare for passage by warming cell wash buffer and cell culture medium (DMEM containing 10% FBS) to room temperature. Warm TrypLE dissociation reagent to 37° C. • 9. Aspirate cell culture medium from wells and wash once with PBS. Remove PBS and add 500 μL of pre-warmed TrypLE reagent to each well of a 6 well plate. Scale TrypLE amount for larger tissue culture plates accordingly. • 10. Incubate culture plate at 37° C. for 5 minutes. […]

SMAD2 = assay: Western blot of phosphorylated SMAD2 in FD-MSCs; conditions: SB pretreatment 2 days in MesenCult-ACF
Description: All assays were performed between 7 and 15 passages. For osteocyte differentiation, mature MSCs were grown in 24 well culture plates to 100% confluency in MesenCult-ACF and induced to differentiate in OsteoLife Complete Osteogenesis Medium (Lifeline Cell Technology) for 21 days prior to staining with Lifeline Alizarin Red Stain to visualize calcium deposition. For chondrocyte differentiation. For beige adipogenic precursor generation, cells were grown in 24 well culture plates to 90% confluence and treated with 5 uM SB413542 (Sigma) and 10 nM human IL-4 (Peprotech) for 2 days. For beige adipogenic induction, adipogenic precursors are differentiated for 3 days with adipogenic medium consisting of T3 (2 nM), insulin (170 nM), rosiglitazone (1 μM), SB413542 (5 uM), IBMX (0.5 mM), dexamethasone (5 μM) and indomethacin (125 μM) in EGM-2 medium (Lonza) supplemented with the BulletKit minus FGF2 (modified from^33). Thereafter, cells are maintained in adipogenic medium without IBMX, dexamethasone and indomethacin. The medium was changed every 3 days and adipocytes were fully differentiated by 9-12 days as determined by lipid accumulation and peak expression of UCP1. […] SWATH runs were extracted and analyzed using PeakView software and MarkerView software was utilized to find statistically relevant relationships through t test comparisons. […]

FD-MSCs [2] = assay: UCP1 expression time course of FD-MSCs during adipogenic differentiation
Description: All assays were performed between 7 and 15 passages. For osteocyte differentiation, mature MSCs were grown in 24 well culture plates to 100% confluency in MesenCult-ACF and induced to differentiate in OsteoLife Complete Osteogenesis Medium (Lifeline Cell Technology) for 21 days prior to staining with Lifeline Alizarin Red Stain to visualize calcium deposition. For chondrocyte differentiation. For beige adipogenic precursor generation, cells were grown in 24 well culture plates to 90% confluence and treated with 5 uM SB413542 (Sigma) and 10 nM human IL-4 (Peprotech) for 2 days. For beige adipogenic induction, adipogenic precursors are differentiated for 3 days with adipogenic medium consisting of T3 (2 nM), insulin (170 nM), rosiglitazone (1 μM), SB413542 (5 uM), IBMX (0.5 mM), dexamethasone (5 μM) and indomethacin (125 μM) in EGM-2 medium (Lonza) supplemented with the BulletKit minus FGF2 (modified from^33). Thereafter, cells are maintained in adipogenic medium without IBMX, dexamethasone and indomethacin. The medium was changed every 3 days and adipocytes were fully differentiated by 9-12 days as determined by lipid accumulation and peak expression of UCP1. Cell Isolation, Expansion and Differentiation of Interscapular Brown Adipose Tissue Preadipocytes • 1. Prior to adipose cell isolation, warm DMEM, FBS and cell wash buffer to room temperature. • 2. […]

[3] = SB throughout the adipogenic differentiation period, day 12

NC(=O)c1ccc(-c2nc(-c3ccc4c(c3)OCO4)c(-c3ccccn3)[nH]2)cc1 [SB, SB431542]
lipid accumulation (FD-MSCs [1]; SB for 2 days before and throughout the 12-day adipogenic differentiation): greatest amount of lipid accumulation
additional increase in lipid droplet staining (FD-MSCs [1]; SB prior to and during differentiation, versus SB during differentiation alone): 45%
cells in culture with lipid content (FD-MSCs [1]; [3]): approximately 50%
increase in lipid content (FD-MSCs [1]; [3]): 5 fold
constitutive phosphorylation of SMAD2 (SMAD2): inhibited
shift of the peak of UCP1 expression (earlier) (FD-MSCs [2]; additional SB pretreatment prior to adipogenic differentiation): 3 days
UCP1 gene expression (qPCR) (FD-MSCs [2]; differentiated in the presence of SB): large increase
